# Reference: patent US20140235863A1, “SUBSTITUTED 4-ARYLTHIAZOLES AND PROCESS OF PREPARATION THEREOF” (priority 2011, published 2014)
# Values joined by “and” are separate entries in the source; they are usually repeats but may differ in a detail not shown here. Equal values may be shown once.
# Columns and labels:
# M. tuberculosis H37Rv [1] = assay: Agar dilution assay (ADA), MIC; type: cell-based, Mycobacterium tuberculosis; conditions: for MIC / Mtb H37Rv MIC: 37° C., 4 weeks; for MIC: read-out: Mtb H37Rv MIC; for anti-TB activity relative to the drug NTZ (times better / more potent): MIC compared with NTZ MIC 52.12 μM
# [2] = Cytotoxicity, Resazurin assay; type: cell-based, monkey; conditions: monkey, Resazurin assay, 72 h; read-out: In vitro cytotoxicity Vero cells CC50
# Protocol: (§1) Cytotoxicity Studies: The compounds for cytotoxicity were tested in an in vitro model for toxicity with Vero monkey kidney cells using Resazurin assay. […] Cells were exposed to dilutions of experimental and control drugs in triplicate for […] with each compound at a range of concentrations from 100-1.56 μg/ml. […] Each well had 100 μL of the test material in serially descending concentrations. After 72 h of incubation, 10 μL of Resazurin indicator solution (0.1%) was added and incubation was continued for 4-5 h. Any color change from purple to pink or colorless was recorded as positive. Fluorescence was measured of each sample with excitation wavelength at 530 nm and emission wavelength at 590 nm using the BMG Polar Star Galaxy. The CC50 values (50% inhibitory concentrations) were calculated by plotting fluorescence values using Microsoft excel template. The data from this toxicity testing and MIC values were used to calculate a selectivity index (SI), the ratio of CC50: MIC.
# Vero monkey kidney cells = assay: Cytotoxicity, Resazurin assay; type: cell-based; conditions: for cytotoxicity to Vero cells: FIG. 4; for selectivity index (SI): ratio CC50:MIC as stated in text b128 (fits BACTEC MIC); for SI (selectivity index): ratio CC50:MIC, Table 1 (agar dilution MIC)
# Protocol: as §1
# M. tuberculosis H37Rv [3] = assay: BACTEC-460TB radiometric assay, MIC and growth index; type: cell-based, Mycobacterium tuberculosis; conditions: for Mtb growth inhibition, growth index (GI) vs days: day 1 to day 11, FIG. 5; for MIC: Mycobacterium tuberculosis, H37RV, BACTEC-460TB radiometric assay, read-out: Mtb H37Rv MIC (BACTEC)
# [4] = test system: replicating and nonreplicating Mtb; conditions: cited from earlier work
# [5] = Mycobacterium tuberculosis, H37RV, 672 h
SMILES,MIC (M. tuberculosis H37Rv [1]; [5]),melting point [°C],other results
"COc1ccc(-c2csc(NN=C3CCCc4c(OC)cccc43)n2)cc1OC [Compound 1a, 4-(3,4-dimethoxyphenyl)-2-(2-(5-methoxy-3,4-dihydronaphthalen-1(2H)-ylidene)hydrazinyl)-thiazole]",15.3 µM and 6.25 µg/mL,200,"CC50 at 72 h [2]: > 244 µM; cytotoxicity to Vero cells (Vero monkey kidney cells; Resazurin assay): failed to show any cytotoxicity; selectivity index (SI) (Vero monkey kidney cells): ≥ 39; SI (selectivity index) (Vero monkey kidney cells): ≧16; Mtb growth inhibition, growth index (GI) vs days (M. tuberculosis H37Rv [3]; 6.25 μM): very effective for inhibiting the Mtb growth till day 11; MIC (M. tuberculosis H37Rv [3]): 6.25 µM"
"COc1cccc2c1CCCC2=NNc1nc(-c2ccc(Cl)cc2Cl)cs1 [Compound 1b, 4-(2,4-dichlorophenyl)-2-(2-(5-methoxy-3,4-dihydronaphthalen-1(2H)-ylidene)hydrazinyl)thiazole]",29.9 µM and 12.5 µg/mL,200,anti-TB activity relative to the drug NTZ (times better / more potent) (M. tuberculosis H37Rv [1]): about 2 times
"COc1cccc2c1CCCC2=NNc1nc(-c2ccc(F)cc2)cs1 [Compound 1c, 4-(4-fluorophenyl)-2-(2-(5-methoxy-3,4-dihydronaphthalen-1(2H)-ylidene)hydrazinyl)thiazole]",17 µM and 6.25 µg/mL,198,"MIC (M. tuberculosis H37Rv [1]; listed as is): 17.03 µM; CC50 at 72 h [2]: > 244 µM; CC50 (Vero monkey kidney cells; Resazurin assay, 72 h, read-out: In vitro cytotoxicity Vero cells CC50): > 300 µM; cytotoxicity to Vero cells (Vero monkey kidney cells; Resazurin assay): failed to show any cytotoxicity; selectivity index (SI) (Vero monkey kidney cells): ≥ 48; SI (selectivity index) (Vero monkey kidney cells): ≧17; Mtb growth inhibition, growth index (GI) vs days (M. tuberculosis H37Rv [3]; 6.25 μM): comparatively lesser effective on day 10 onwards; MIC (M. tuberculosis H37Rv [3]): 6.25 µM"
"COc1cccc2c1CCCC2=NNc1nc(-c2cccc([N+](=O)[O-])c2)cs1 [Compound 1d, 2-(2-(5-methoxy-3,4-dihydronaphthalen-1(2H)-ylidene)hydrazinyl)-4-(3-nitrophenyl)thiazole]",31.7 µM and 12.5 µg/mL,185,anti-TB activity relative to the drug NTZ (times better / more potent) (M. tuberculosis H37Rv [1]): about 2 times
"COc1ccc(-c2csc(NN=Cc3cn(Cc4ccc(Cl)cc4Cl)c4ccccc34)n2)cc1OC [Compound 2a, 2-(2-((1-(2,4-dichlorobenzyl)-1H-indol-3-yl)methylene)hydrazinyl)-4-(3,4-dimethoxyphenyl)thiazole]",> 12.5 µg/mL,205,Mtb H37Rv MIC (M. tuberculosis H37Rv [1]): >12.50 µg/mL
"Clc1ccc(Cn2cc(C=NNc3nc(-c4ccc(Cl)cc4Cl)cs3)c3ccccc32)c(Cl)c1 [Compound 2b, 2-(2-((1-(2,4-dichlorobenzyl)-1H-indol-3-yl)methylene)hydrazinyl)-4-(2,4-dichlorophenyl)thiazole]",22.9 µM and 12.5 µg/mL,185,
"Fc1ccc(-c2csc(NN=Cc3cn(Cc4ccc(Cl)cc4Cl)c4ccccc34)n2)cc1 [Compound 2c, 2-(2-((1-(2,4-dichlorobenzyl)-1H-indol-3-yl)methylene)hydrazinyl)-4-(4-fluorophenyl)thiazole]",> 12.5 µg/mL,198,Mtb H37Rv MIC (M. tuberculosis H37Rv [1]): >12.50 µg/mL
"Fc1ccc(Nc2nc(-c3ccc(F)cc3)cs2)cc1 [Compound 6, N,4-bis(4-fluorophenyl)thiazol-2-amine]",6.25 µM and 1.8 µg/mL,127,"anti-TB activity relative to the drug NTZ (times better / more potent) (M. tuberculosis H37Rv [1]): about 9 times; MIC (M. tuberculosis H37Rv [3]): 12.5 µM; Mtb growth inhibition, growth index (GI) vs days (M. tuberculosis H37Rv [3]; ≧12.5 μM): effectively inhibit Mtb growth till day 11"
"COc1ccc(OC)c(Nc2nc(-c3ccc(F)cc3)cs2)c1 [Compound 7a, N-(2,5-dimethoxyphenyl)-4-(4-fluorophenyl)thiazol-2-amine]",> 12.5 µg/mL,160,
"COc1ccc(OC)c(Nc2nc(-c3cccc([N+](=O)[O-])c3)cs2)c1 [Compound 7b, N-(2,5-dimethoxyphenyl)-4-(3-nitrophenyl)thiazol-2-amine]",> 12.5 µg/mL,154,
"COc1ccc(-c2csc(Nc3cc(OC)ccc3OC)n2)cc1 [Compound 7c, N-(2,5-dimethoxyphenyl)-4-(4-methoxyphenyl)thiazol-2-amine]",> 12.5 µg/mL,104,
"COc1ccc(-c2csc(Nc3ccccc3C(F)(F)F)n2)cc1OC [Compound 8a, 4-(3,4-dimethoxyphenyl)-N-(2-(trifluoromethyl)phenyl)thiazol-2-amine]",> 12.5 µg/mL,188,
"Fc1ccc(-c2csc(Nc3ccccc3C(F)(F)F)n2)cc1 [Compound 8b, 4-(4-fluorophenyl)-N-(2-(trifluoromethyl)phenyl)thiazol-2-amine]",> 12.5 µg/mL,184,
"O=[N+]([O-])c1cccc(-c2csc(Nc3ccccc3C(F)(F)F)n2)c1 [Compound 8c, 4-(3-nitrophenyl)-N-(2-(trifluoromethyl)phenyl)thiazol-2-amine]",> 12.5 µg/mL,182,
"COc1ccc(-c2csc(Nc3ccccc3C(F)(F)F)n2)cc1 [Compound 8d, 4-(4-methoxyphenyl)-N-(2-(trifluoromethyl)phenyl)thiazol-2-amine]",> 12.5 µg/mL,,
"NNC(=O)c1ccncc1 [Isoniazid (INH), Isoniazid, reference compound]",< 1 µg/mL,,
"CC(=O)Oc1ccccc1C(=O)Nc1ncc([N+](=O)[O-])s1 [Nitazoxanide (NTZ), Nitazoxanide]",,,MIC ([4]; nonreplicating Mtb): 60.38 μM and 16 μg/mL
"[H]/N=C(/N)N[C@H]1[C@H](O)[C@@H](O)[C@H](O[C@@H]2O[C@@H](C)[C@](O)(C=O)[C@H]2O[C@@H]2O[C@@H](CO)[C@H](O)[C@@H](O)[C@@H]2NC)[C@@H](N/C(N)=N\[H])[C@@H]1O [Streptomycin (SM), Streptomycin, reference compound]",,,MIC (M. tuberculosis H37Rv [3]): 6 µM
"O=C(Nc1ncc([N+](=O)[O-])s1)c1ccccc1O [Tizaxonide (TIZ), Tizaxonide]",,,"MIC of reference NTZ/TIZ, Mtb H37Rv ([4]; replicating Mtb, literature value listed with the agar dilution data): 60.38 μM and 16.00 μg/mL"
